Measurements published in ChEMBL document CHEMBL1201862, “PubChem BioAssay data set” (2004).
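Briefly, cells in 96-well plates were exposed to five compound concentrations for 48 h, and endpoints were estimated by linear interpolation. The concentration for 50% growth inhibition is given as GI50.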 Active and inactive are the calls of the source. No stated cut-off is given here; in the data, active = GI50 up to about 1.1 µM and inactive = higher.

Columns and labels:
Experiment in all cases: NCI-60 cell line screen, 48 h
[1] = tested on: SF-539
[2] = tested on: U-251
[3] = tested on: HOP-62
[4] = tested on: NCI-H226
[5] = tested on: RPMI-8226
[6] = tested on: HOP-92
[7] = tested on: A498
[8] = tested on: HCT-116
[9] = tested on: LOX IMVI
[10] = tested on: SN12C
[11] = tested on: MOLT-4
[12] = tested on: SK-MEL-5
[13] = tested on: MDA-MB-231
[14] = tested on: MCF7
[15] = tested on: PC-3
[16] = tested on: IGROV-1
[17] = tested on: SNB-19
[18] = tested on: A549
[19] = tested on: SF-268
[20] = tested on: COLO 205

Measured: GI50

CC1=Nn2c(nc3sc4c(c3c2=O)CCCC4)SC1
inactive: [1] > 48.6 µM | [2] 45.5 µM | [3] > 100 µM | [4] > 100 µM | [5] 69.2 µM | [6] 36.1 µM | [7] > 50.1 µM | [8] 82 µM | [9] 21.4 µM | [10] > 78.5 µM | [11] 44.2 µM | [12] 62.4 µM | [13] > 50.4 µM | [14] > 77.6 µM | [15] 63 µM | [16] > 76.4 µM | [17] 90.2 µM | [18] > 83.6 µM | [19] > 58.1 µM | [20] > 87.9 µM

Nc1ncnc2c1ncn2[C@@H]1O[C@H](COP(=O)(O)OP(=O)(O)OC[C@H]2O[C@@H](OCCCO)[C@H](O)[C@@H]2O)[C@@H](O)[C@H]1O
inactive: [1] > 100 µM | [2] > 100 µM | [3] > 100 µM | [4] > 100 µM | [5] > 100 µM | [6] > 100 µM | [7] > 100 µM | [8] 61.1 µM | [9] 56.8 µM | [10] > 100 µM | [11] > 100 µM | [12] > 100 µM | [13] > 100 µM | [14] > 100 µM | [15] > 100 µM | [16] > 100 µM | [17] 76.6 µM | [18] 87.7 µM | [19] > 100 µM | [20] > 100 µM

O=C(c1ccc(/N=C/c2ccccc2O)cc1)c1ccc(/N=C/c2ccccc2O)cc1
inactive: [1] > 100 µM | [2] > 100 µM | [3] > 100 µM | [4] > 100 µM | [5] > 100 µM | [6] > 100 µM | [7] > 100 µM | [8] > 100 µM | [9] > 100 µM | [11] > 100 µM | [12] 6.11 µM | [13] > 100 µM | [14] > 100 µM | [15] > 100 µM | [16] > 100 µM | [17] > 100 µM | [18] > 100 µM | [19] > 100 µM | [20] 30.1 µM

CC(/C=N/N(C)C1=NCCCN1)=N/N(C)C1=NCCCN1
inactive: [1] > 100 µM | [2] > 100 µM | [3] > 100 µM | [4] > 100 µM | [5] > 100 µM | [6] > 100 µM | [7] > 100 µM | [8] > 100 µM | [9] > 100 µM | [10] > 100 µM | [11] > 100 µM | [12] > 100 µM | [13] > 100 µM | [14] > 100 µM | [15] > 100 µM | [16] > 100 µM | [17] > 100 µM | [18] > 100 µM | [19] > 100 µM | [20] > 100 µM

CC(=O)OCC12C(OC(C)=O)C(=O)C3C(OC(C)=O)C14OC3(C)COC(=O)c1cccnc1C(C)C(C)C(=O)OC(C(OC(C)=O)C2OC(C)=O)C4(C)O (centres undefined)
inactive: [1] > 100 µM | [2] > 100 µM | [3] > 100 µM | [4] > 100 µM | [5] > 100 µM | [6] > 100 µM | [7] > 100 µM | [8] > 100 µM | [9] > 100 µM | [10] > 100 µM | [11] 52.2 µM | [12] > 100 µM | [13] > 100 µM | [14] > 100 µM | [15] > 100 µM | [16] > 100 µM | [17] > 100 µM | [18] > 100 µM | [19] > 100 µM | [20] > 100 µM
